Data: patent publication US20080305097A1, “Use of Protease or a Protease Inhibitor for the Manufacture of Medicaments” (YEDA RESEARCH AND DEVELOPMENT CO., LTD., priority 2004, published 2008)

Legend:
[1] = test system: TRAP+ multinucleated osteoclasts; assay: Osteoblast/BM co-culture, TRAP+ multinucleated osteoclast count; type: cell-based, mouse; settings: G-CSF 50 ng/ml, HGF 50 ng/ml, SDF-1 10 and 100 ng/ml; 5 days
Experimental: Osteoclast precursors are stimulated by cell-cell contact with osteoblasts to become activated multinucleated TRAP+ bone resorbing cells. To obtain active osteoclasts in vitro, a clvarian osteoblasts are incubated with Vitamine D3 and PG2E which potentiate their M-CSF production and RANKL expression, needed for osteoclast activation. BM cells which contain osteoclast precursors are seeded then on the osteoblast monolayer, for 5 days, to obtain active multinucleated osteoclasts.
A co-culture of primary mouse osteoblasts and BM (containing ocl precursors as detailed above) was seeded in the presence of G-CSF (50 ng/ml), HGF (50 ng/ml), or SDF-1 (10 and 100 ng/ml). Five days later, TRAP+ multinucleated osteoclasts in the cultures were stained (as described in Example 1) and counted 5 days later.

SDF-1 [2] = assay: SDF-1 transcription (RT-PCR) and secretion (ELISA) in primary calvaria osteoblasts; type: cell-based, mouse; settings: 50 ng/ml, 3 days
Experimental: Osteoblast were incubated with G-CSF, HGF or remained untreated, and SDF-1 transcription and expression was determined in such cells (FIG. 9).
Primary calvaria osteoblasts were cultured for 3 days in the presence of SDF-1 (PeproTech, 100 […]), HGF (PeproTech, 50 ng/ml) and G-CSF (Filgrastin, Roche, 50 ng/ml). Conditioned media was collected to determine SDF-1 concentration by ELISA, as described in Example 2. Determination of SDF-1 transcription and expression as in Example 2.

osteoclast = assay: In vivo osteoclast activation by SDF-1 or HGF, TRAP staining; parameters: species or system Balb/c mice; settings: subcutaneously five consecutive days, 10 mcg SDF-1 or 1.5 mcg HGF
Experimental: (§1) We carried out the following experiment to verify in vivo our hypothesis that SDF-1 induces osteoclast activation and hematopoietic progenitor cell (HPC) mobilization. Balb/c mice were injected subcutaneously for five consecutive days with 10 mcg SDF-1 or 1.5 mcg HGF or both, and osteoclast activation (measured by TRAP+ staining as in Example 1) and mobilization to the peripheral blood, (assayed in semi solid culture as in Example 1) was determined.

[3] = test system: hematopoietic progenitor cell (HPC); assay: In vivo progenitor mobilization by SDF-1 or HGF, semi solid culture; parameters: species or system Balb/c mice; settings: subcutaneously five consecutive days, 10 mcg SDF-1 or 1.5 mcg HGF
Experimental: as §1
(§2) In order to detect the levels of mouse progenitors in the blood circulation, semisolid cultures were performed as previously described (Petit, Nat Immunol, 2002). In brief, mouse BM cells (3×10^5 cells/ml) were plated in 0.9% methylcellulose (Sigma), 30% FCS, 5×10^−5M 2ME, 50 ng/ml SCF, 5 ng/ml IL-3, 5 ng/ml GM-CSF (R&D), and 2 u/ml erythropoietin (Orto Bio Tech, Don Mills, Canada). The cultures were incubated at 37° C. in a humidified atmosphere containing 5% CO2 and scored 7 days later by inverted microscopy by morphologic criteria.

TRAP+ osteoclasts = assay: TRAP staining of activated osteoclasts in BM after LPS; type: in vivo, Balb/c mice; settings: LPS 250 μg/mouse single injection, 5 days later
Experimental: LPS (Sigma) was administered to Balb/c mice in a single subcutaneous injection of 250 μg/mouse, and saline was injected instead of LPS in control groups. 5 days following LPS administration, mice were sacrificed, bones were fixed, decalcified, paraffin embedded and sectioned, BM harvested, and the level of TRAP+ osteoclast (activated osteoclast) monitored.
In this assay substrate is exogeneously provided to measure intrinsic activity of the tissue TRAP in the BM of LPS treated mice (FIGS. 1A and B).

HGF = assay: Semi quantitative RT-PCR of BM after LPS: HGF; type: in vivo, mouse; settings: LPS treated mice, 5 days
Experimental: (§3) One femur of each mouse was flushed with Trireagent for RNA extraction. 1 ug RNA was used for the preparation of cDNA. Semi quantitative RT-PCR was used to measure the transcription of mouse SDF-1, HGF and CTK. The following primers were used: SDF-1 (Ponomaryov, 2000, J. Clin. Invest. 106:1331): left primer (SEQ ID NO: 1) 5′-[…]-3′, right primer (SEQ ID NO: 2) 5′-[…]-3′. HGF (Weinstein, 2001, Moll Cell boil, 21(15):5122): left primer (SEQ ID NO: 3) 5′-[…]-3′, right primer (SEQ ID NO: 4) 5′-[…]-3′. CTK: left primer (SEQ ID NO: 5) 5′-[…]-3′, right primer (SEQ ID NO: 6) 5′-[…]-3′.

CTK = assay: Semi quantitative RT-PCR of BM after LPS: CTK; type: in vivo, mouse; settings: LPS treated mice, 5 days
Experimental: as §3

SDF-1 [4] = assay: Semi quantitative RT-PCR of BM after LPS: SDF-1; type: in vivo, mouse; settings: LPS treated mice, 5 days
Experimental: as §3

SDF-1 [5] = assay: SDF-1 concentration in bone marrow by ELISA after LPS; type: in vivo, Balb/c mice
Experimental: Mice were administered for 5 days with LPS as described in example 1 and SDF-1 concentration in bone marrow was monitored (by ELISA as described by Petit et al 2002).
(§4) In order to verify that the progenitor increase detected in PB in the LPS treated mice, results from the egress or mobilization of cells from the bone marrow, mononuclear cells (MNC) were monitored in the BM and in PB by counting numbers of ficolled WBC (leukocytes), using hemacytometer shortly after LPS treatment (16 hours post LPS treatment) and in BM and PB of non treated mice (FIG. 3).

progenitors = assay: CFU assay of progenitors in peripheral blood after LPS; type: in vivo, Balb/c mice
Experimental: Mice were administered for 5 days with LPS (as described in Example 1) and progenitor increase in peripheral blood (PB) was measured (as in Example 9).
as §2

mononuclear cells (MNC) = assay: Mononuclear cell counts in BM and PB by hemacytometer after LPS; type: in vivo, Balb/c mice; settings: 16 hours post LPS, versus non treated mice
Experimental: as §4

CXCR4 = CXCR4 expression in BM and PB by flow cytometry after LPS; type: in vivo, Balb/c mice; settings: both BM and PB, 16 hours post LPS
Experimental: We monitored CXCR4 expression in BM and PB of LPS treated mice, 16 hours post LPS administration, and in control non treated mice.

Substance | level of activated TRAP+ osteoclasts [1] | SDF-1 transcription in osteoblasts (SDF-1 [2]) | SDF-1 production in osteoblasts (SDF-1 [2]; conditioned media ELISA) | osteoclast activation in vivo (osteoclast) | mobilization of progenitors in vivo [3] | TRAP+ osteoclasts in the BM (TRAP+ osteoclasts) | HGF transcription in the BM (HGF) | CTK transcription in the BM (CTK) | SDF-1 transcription in the BM (SDF-1 [4]) | decrease in BM SDF-1 concentration (SDF-1 [5]; 16 hours post LPS, versus non treated mice) | BM SDF-1 concentration (SDF-1 [5]; 5 days LPS) | decrease in BM SDF-1 concentration (SDF-1 [5]; 5 days LPS, versus non-treated control) | progenitor mobilization (progenitors; 16 hours post LPS) | level of progenitors in PB, higher than control non-treated mice (progenitors; 5 days LPS) | progenitor colonies in PB (progenitors; 5 days LPS) | decrease of MNC cells in the BM (mononuclear cells (MNC)) | increase of MNC cells in the PB (mononuclear cells (MNC)) | level of CXCR4 expression (CXCR4)
HGF: hepatocyte growth factor (PeproTech) | significantly increased | induce | induce | induced | induced | – | – | – | – | – | – | – | – | – | – | – | – | –
lipopolysaccharide [LPS] | – | – | – | – | – | dramatic increase in TRAP+ osteoclasts | dramatic increase | dramatic increase | decrease | about 55% | 0.4 ng/mg protein | about 66% | significant increase in progenitor mobilization | about 95% | about 100 colonies per 5×10^5 seeded cells | about 53% | about 78% | significant increase
